Measurements taken from patent publication US20060104901A1, “Preventing or treating epithelial tissue damage or hair loss” (priority 2002, published 2006).

System: CD1d gene transcription
Experiment: CD1d mRNA by Real Time PCR in primary human keratinocytes under H2O2 chemical stress
Format: cell-based
Conditions: primary human keratinocytes exposed to 300 μM H2O2, KGM with vs without hydrocortisone, RNA at different times after treatment, FIG. 11
Procedure: Primary human keratinocytes were grown in complete KGM before being exposed to 300 μM H2O2 as a stress factor. 48 hours after seeding, KGM medium was replaced by KGM without hydrocortisone and cultures were treated with 300 μM of H2O2. Total RNA was extracted at different time after treatment and CD1d mRNA quantified by Real Time PCR.
For Taq Man Assays, Applied Biosystems recommends to use 10 to 100 ng of initial RNA quantity per well. Consequently, first strand cDNA synthesis was performed in a 20 μl volume using 1 μg of total RNA and […] of random hexamers following the manufacturer's recommendations (Superscript™ First-Strand Synthesis System for RT-PCR, 11904-018, Invitrogen). 1 μl of the resulting cDNA samples was used for amplification by Real Time PCR. […]
All the cDNA samples were tested in triplicate. […] The plate was sealed, centrifuged at 2000 rpm for 30 seconds and placed in a 5700 Sequence Detection System for thermal cycling and fluorescence analysis using the following PCR program: […]
Results were analyzed using the GeneAmp® 5700 SDS software. […]
The gene expression fold changes obtained in the test condition compared to the control condition were determined by the comparative Ct method using the following formula: [formula] […]

## C[C@]12CCC(=O)C=C1CC[C@@H]1[C@@H]2[C@@H](O)C[C@@]2(C)[C@H]1CC[C@]2(O)C(=O)CO [Hydrocortisone]
  CD1d gene transcription (CD1d mRNA, fold change by comparative Ct method): able to down-regulate CD1d expression
Listed as hydrocortisone
  CD1d gene transcription (CD1d mRNA, fold change by comparative Ct method): suppresses CD1d transcription
